Test results from patent US20140056951A1, “METHODS AND COMPOSITIONS FOR TREATING BIOFILMS” (PRESIDENT AND FELLOWS OF HARVARD COLLEGE, priority 2011, published 2014).

Key:
[1] = tested on: B. subtilis strain NCBI3610; experiment: Biofilm (pellicle) inhibition assay, B. subtilis in liquid biofilm-inducing medium; assay type: cell-based, Bacillus subtilis; conditions: for concentration above which inhibition of biofilm formation is observed: B. subtilis pellicle formation; for inhibition of pellicle formation at 50 μM: cells diluted 1:1000 in biofilm media, final concentration 50 μM; for minimal effective concentration: Bacillus subtilis, NCBI3610, read-out: MBIC- Minimal Biofilm Inhibitory Concentration; for biofilm-inhibitory activity against B. subtilis: structure-activity
Protocol: Bacillus subtilis strains PY79, 3610 and their derivatives were grown in Luria-Bertani (LB) medium at 37° C. or MSgg medium (1) at 23° C. Solid media contained 1.5% Bacto agar. When appropriate, antibiotics were added at the following concentrations for growth of B. subtilis: 10 μg per ml of tetracycline, and 5 μg per ml of erythromycin, 500 μg per ml of spectinomycin.
B. subtilis strain NCBI3610 was grown at 22° C. in 12-well plates in liquid biofilm-inducing medium for 3 or 8 days. Conditioned medium (500 ml) from an 8-day-old culture was concentrated on the C-18 column and eluted step-wise with methanol. […]
Pellicle formation of strain NCBI 3610 was tested in the presence of the indicated concentrations of norspermidine (FIG. 1D) or spermidine (FIG. 1E).
To identify features of norspermidine important for its biofilm disassembly activity, we tested a library of polyamines in our biofilm inhibition assay (FIGS. 9A, 9B, 10 and Table 2).
The effect of polyamines on pellicle formation by B. subtilis was examined. B. subtilis wild-type cells were grown to a mid-logarithmic phase and diluted 1:1000 in biofilm media applied with each polyamine to the final concentration of 50 μM.
The effect of cyclic polyamines on biofilm formation by B. subtilis was examined. B. subtilis wild-type cells were grown to a mid-logarithmic phase and diluted 1:1000 in biofilm media (18A) or in a medium applied with cyclic compound 1,5,9-Triazacyclododecane to the final concentration of 50 μM (18B).

[2] = tested on: exopolysaccharide of E. coli cells; experiment: Fluorescence microscopy of exopolysaccharide staining, E. coli; assay type: cell-based, Escherichia coli
Source text: In testing E. coli, the biofilm-proficient strain MC4100 was selected because a major component of exopolysacchride is colanic acid (Danese et al., 2000; Price and Raivio, 2009).

[3] = tested on: exopolysaccharide of S. aureus cells; experiment: Fluorescence microscopy of exopolysaccharide staining, S. aureus; assay type: cell-based, Staphylococcus aureus
[4] = tested on: exopolysaccharide and TasA of B. subtilis NCBI 3610; experiment: Fluorescence microscopy of matrix components (concanavalin A-Texas Red, TasA-mCherry), B. subtilis; assay type: cell-based, Bacillus subtilis; conditions: norspermidine 25 μM, spermidine 1 mM
Source text: The cells were washed in PBS and stained for exopolysaccharide with a conjugate of concanavalin A with Texas-Red.
[…] Cells were washed in PBS, and visualized by fluorescence microscopy.
To investigate further, exopolysaccharide was visualized by fluorescence microscopy using a conjugate of the carbohydrate-binding protein concanavalin A with Texas Red (FIG. 5) (McSwain et al., 2005). As evidence of specificity, the conjugate decorated wild-type cells but not cells from a mutant (Aeps) blocked in exopolysaccharide production (FIG. 6A). Indeed, at an exposure at which concanavalin A staining with the wild type strain gave an extremely bright fluorescent signal, little or no signal could be detected for the Aeps mutant, except at long exposures and enhanced brightness (FIG. 6A). Next, we investigated the effects of norspermidine and spermidine. […] Therefore, the difference in the staining was evidently due to differential levels of cell-associated exopolysaccharide. […] Thus, while not being bound to any theory, it is believed that norspermidine disrupts the matrix and by targeting exopolysaccharide.

[5] = tested on: B. subtilis wild-type cells; experiment: Biofilm formation on solid biofilm medium, B. subtilis; assay type: cell-based, Bacillus subtilis; conditions: 1 μl of cells mixed with 1 μl (1 mM) polyamine
Protocol: B. subtilis wild-type cells were grown to a mid-logarithmic phase and 1 μl of cells was mixed with 1 μl (1 mM) of each polyamine. The mixture was plated on solid biofilm medium.
B. subtilis wild-type cells were grown to a mid-logarithmic phase and 1 μl of cells was either mixed with PBS (18C) or mixed with 1 μl (1 mM) of each polyamine (18D). The mixture was plated on solid biofilm medium. “3*” refers to 1,5,9-Triazacyclododecane.

[6] = B. subtilis biofilm inhibition assay, library of polyamines

## 1,3-diaminopropane [Molecule 6]
[1]; [6]
  MBIC- Minimal Biofilm Inhibitory Concentration: 2500 to 5000 µM
[1]
  concentration above which inhibition of biofilm formation is observed: > 5 mM

## NCCCCNCCCN [Molecule 3, 1,8-diamino-4-azaoctane, reference compound]
[2]
  staining of exopolysaccharide, E. coli cells: not
[3]
  staining of exopolysaccharide, S. aureus cells: not
[4]
  pattern of concanavalin A-Texas Red staining of exopolysaccharide: No such effect
[5]
  inhibition of biofilm formation on solid biofilm medium: do not
[1]; listed as spermidine
  concentration above which inhibition of biofilm formation is observed: > 2 mM
[1]
  inhibition of pellicle formation at 50 μM: do not

## NCCCCNCCCN [Molecule 3, spermidine]
[1]; [6]
  minimal effective concentration: 5000 µM

## NCCCNCCCCNCCCN [Molecule 4, 1,12-diamino-4,9-diazaoctane, reference compound]
[1]; [6]
  minimal effective concentration: 2500 µM

## NCCCCN [Molecule 5, 1,4-diaminobutane, reference compound]
[1]; [6]
  minimal effective concentration: 2000 to 3000 µM

## CN(C)CCCN(C)CCCN(C)C [Molecule 7, N^1-(3-(dimethylamino)propyl)-N^1,N^3,N^3-trimethylpropane-1,3-diamine]
[1]; [6]
  minimal effective concentration: > 5000 µM

## CN(C)CCCNCCCN(C)C [Molecule 8, N^1-(3-(dimethylamino)propyl)-N^3, N^3-dimethylpropane-1,3-diamine]
[1]; [6]
  minimal effective concentration: > 5000 µM

## CN(CCCN)CCCN [Molecule 9, (3-aminopropyl)-N^1-methylpropane-1,3-diamine]
[1]; [6]
  minimal effective concentration: > 5000 µM

## NCCCOCCCN [Molecule 10, 3,3′-oxybis(propan-1-amine)]
[1]; [6]
  minimal effective concentration: 5000 µM

## CCOC(=O)CCC(=O)CCC(=O)OCC [Molecule 11, Diethyl 4-oxoheptanedioate]
[1]; [6]
  minimal effective concentration: > 5000 µM

## c1cc2ccc1CNCCCNCCCNCc1ccc(cc1)CNCCCNCCCNC2 [Molecule 12, 3,7,11,18,22,26-Hexaazatricyclo[26.2.2.213,16]tetratriaconta-13,15,28,30,31,33-hexaene]
[1]; [6]
  minimal effective concentration: 500 µM
[1]; library of polyamines
  biofilm-inhibitory activity against B. subtilis: active

## CCCCCCCCCCCCNCCCNCCCNCCCCCCCCCCCC [Molecule 13, N^1-dodecyl-N^3-(3-(dodecylamino)propyl)propane-1,3-diamine]
[1]; [6]
  minimal effective concentration: 100 µM
[1]; library of polyamines
  biofilm-inhibitory activity against B. subtilis: active

## Cc1c(Cc2[nH]c(C(=O)OC(C)(C)C)c(C)c2C)[nH]c(Cc2[nH]c(C(=O)OC(C)(C)C)c(C)c2C)c1C [Molecule 14, di-tert-butyl 5,5′-((3,4-dimethyl-1H-pyrrole-2,5-diyl)bis(methylene))bis(3,4-dimethyl-1H-pyrrole-2-carboxylate)]
[1]; [6]
  minimal effective concentration: 500 to 700 µM
[1]; library of polyamines
  biofilm-inhibitory activity against B. subtilis: active

## NNC(=O)Cc1ccc(CC(=O)NN)[nH]1 [Molecule 15, 2,2′-(1H-pyrrole-2,5-diyl)di(acetohydrazide)]
[1]; [6]
  minimal effective concentration: > 5000 µM

## CN(C)N(CCC(N)=O)CCC(N)=O [Molecule 16, 3,3′-(2,2-dimethylhydrazine-1,1-diyl)dipropanamide]
[1]; [6]
  minimal effective concentration: > 5000 µM

## O=C(NCCCNCCCNC(=O)C(O)C(O)C(O)C(O)CO)C(O)C(O)C(O)C(O)CO (centres unmarked) [Molecule 17, N,N′-(azanediylbis(propane-3,1-diyl))bis(2,3,4,5,6-pentahydroxyhexanamide)]
[1]; [6]
  minimal effective concentration: > 5000 µM

## NCCCCCN [Molecule 19, pentane-1,5-diamine, reference compound]
[1]; [6]
  minimal effective concentration: 3000 µM

## OCCCNCCCO [Molecule 20, 3,3′-azanediylbis(propan-1-ol)]
[1]; [6]
  minimal effective concentration: > 5000 µM

## NCCCN(CCCN)CCCN [Molecule 21, N^1,N^1-bis(3-aminopropyl)propane-1,3-diamine]
[1]; [6]
  minimal effective concentration: 200 µM
[1]; library of polyamines
  biofilm-inhibitory activity against B. subtilis: did not block activity

## C1CNCCCNCCCNC1 [c, 1,5,9-triazacyclododecane]
[5]
  inhibition of biofilm formation on solid biofilm medium: inhibits biofilm formation
[1]
  inhibition of pellicle formation at 50 μM: inhibits biofilm formation

## C1COCCN1 [morpholine, reference compound]
[1]; NCBI3610 in fresh medium, 100 μM (FIG. 1B)
  inhibition of pellicle formation at 100 μM: inactive
